Test results published in patent US20080312160A1, “METHOD OF TREATING ENTERITIS, […], AND DIARRHEA FROM C. DIFFICILE WITH AN A2A ADENOSINE RECEPTOR AGONIST” (priority 2007, published 2008).

Legend:
[1] = test system: murine ileal loops injected with Clostridium difficile toxin A (TxA); assay: TxA-induced enteritis in ligated murine ileal loops: loop weight and secretion volume; assay type: in vivo, mice
Experimental: For this study, 174 male Swiss mice, 25-30 g body weight, from the animal colony of the Federal University of Ceara were used. The animals received water and food ad libitum.
(§1) Mice were fasted overnight, but allowed access to water, and then anesthetized with ketamine and xylazine (60 and 5 mg/Kg intramuscularly, respectively). Through a midline laparotomy, one 4-cm ileal loop was ligated and injected with either 0.1 ml of PBS pH 7.4 (control) or buffer containing TxA (1-10 μg). The abdomen was closed, and the animals were allowed to regain consciousness. Three hours after administration of TxA, mice were sacrificed and the intestinal loops were removed. The loop length, weight, and fluid volume were recorded. A portion of the loop was frozen at −70° C. for measurement of myeloperoxidase (MPO) and ADA activities and TNF-α concentration. The remaining tissue was fixed in 10% formalin and embedded in paraffin, and sections were stained with hematoxylin and eosin for histological grading of ileal inflammation. Some mice were injected with ATL 313 ([…] final concentration) immediately followed by PBS or TxA (5 μg); another group was injected with ZM241385 (5 nM), the selective A2A AR antagonist, immediately followed by PBS or ATL 313 (5 nM)+TxA (5 μg) in the ileal loop. In another experiment, TxA (5 μg) was injected into the ileal loop, the abdomen was closed, and, 30 min later, the abdomen was reopened and ATL 313 (5 nM) administered.

[2] = test system: Clostridium difficile toxin A (TxA)-induced histological alterations; assay: Histological grading of ileal inflammation, murine ileal loops; assay type: in vivo, mice; conditions: for median injury score: median(range)
Experimental: as §1
The severity of inflammation was scored in coded slides by a pathologist on a scale of 1 (mild) to 3 (severe) for epithelial damage, edema, and neutrophil infiltration.

[3] = test system: Clostridium difficile toxin A (TxA)-induced cell death; assay: Cell death in intestinal sections (TUNEL method); assay type: in vivo, mice; conditions: ATL 313 + TxA
Experimental: as §1, with “administered. […]” for “administered.”

[4] = test system: Clostridium difficile toxin A-induced MPO activity; assay: MPO assay in ileal tissue (neutrophil accumulation); assay type: in vivo, mice
Experimental: as §1, with “In another experiment, TxA (5 μg) was injected into the ileal loop, the abdomen was closed, and, 30 min later, the abdomen was reopened and ATL 313 (5 nM) administered.” left out
The extent of neutrophil accumulation in ileal tissue was estimated by measuring MPO activity assay. […] MPO activity in the resuspended pellet was assayed by measuring the change in absorbance at 450 nm using o-dianisidine dihydrochloride and 1% hydrogen peroxide. […]

[5] = test system: Clostridium difficile toxin A-induced TNF-α production; assay: Quantification of TNF-α by ELISA in ileal tissue; assay type: in vivo, mice; conditions: ATL 313 + TxA vs TxA only
Experimental: as §1, with “In another experiment, TxA (5 μg) was injected into the ileal loop, the abdomen was closed, and, 30 min later, the abdomen was reopened and ATL 313 (5 nM) administered.” left out
Ileal tissue was harvested from animals in order to measure TNF-α concentration by enzyme-linked immunosorbent assay (ELISA). The results are expressed as pg/mL of TNF-α.

[6] = test system: Clostridium difficile toxin A-induced ADA activity; assay: ADA activity in ileal tissue and ileal secretion; assay type: in vivo, mice; conditions: ATL 313 in TxA-challenged animals
Experimental: Mice were fasted overnight, but allowed access to water, and then anesthetized with ketamine and xylazine (60 and 5 mg/Kg intramuscularly, respectively). Through a midline laparotomy, one 4-cm ileal loop was ligated and injected with either 0.1 ml of PBS pH 7.4 (control) or buffer containing TxA (1-10 μg). The abdomen was closed, and the animals were allowed to regain consciousness. Three hours after administration of TxA, mice were sacrificed and the intestinal loops were removed. The loop length, weight, and fluid volume were recorded. A portion of the loop was frozen at −70° C. for measurement of myeloperoxidase (MPO) and ADA activities and TNF-α concentration. […]
The ADA assay is based on the measurement of ammonia produced during the deamination of adenosine by the method of Giusti (1974. Adenosine deaminase, p. 1092-1099. In H. U. Bergmeyer (Ed.), Methods of Enzymatic Analysis, vol. 2. Academic Press Inc., New York), with slight modifications. […] Following the addition of 600 μl of sodium hypochloride (11 mM) in 125 mM NaOH all tubes were again incubated at 37° C. for 30 min and read at 628 nm. The enzyme activity in the tissue and in the ileum contents was expressed as μmols of ammonium formed/mg of protein/hour and as μmols of ammonium formed/hour, respectively.

[7] = test system: C. difficile toxin A-induced inflammation and secretion in rabbit ileal loops; assay type: in vivo, New Zealand white rabbits; conditions: ATL 313 100 nM with alanyl-glutamine 25 mM; 5 hours
Experimental: Materials and Methods: New Zealand white rabbits weighing about 2 kg are fasted overnight. Under anesthesia with ketamine (60-80 mg/kg) and xylazine (5-10 mg/kg) administered intramuscularly, a midline abdominal incision is performed to expose the small bowel. After the ileum is flushed, four-cm loops are ligated using double ties with a 1 cm interval between loops. Each of the control loops is injected intraluminally with 1 mL solution of PBS with either C. difficile toxin A (toxin A) (Techlab, Blacksburg, Va.) at 10 μg/mL. Loops from another set of rabbits are treated with the adenosine A2A agonists, JMR 193 (ATL 193) (10 nM, 100 nM, or 1 uM doses) or ATL 146e ([…], 100 nM, 1 uM doses) immediately before the enterotoxin is administered. In addition a rabbit is treated with A2A agonist, ATL 313 (100 nM), alone and another rabbit treated with ATL 313 with alanyl-glutamine (25 mM). After 5 hours of incubation, the ligated small intestinal loops are removed. The length of each ligated ileal segment is measured and intraluminal fluid was quantified. Volume to length ratio, V/L (mL/cm), per loop is calculated. Samples of intestinal stained with hematoxylin-eosin and graded from 0 (none) to 4 (worst) based on the degree of mucosal disruption, increase in cellularity and intensity of vascular congestion.

[8] = ATL 313 5 nM alone, absence of TxA
[9] = ATL 313 5 nM in loop immediately followed by TxA 5 μg, 3 h, vs TxA alone

Question: For `COC(=O)N1CCC(CC#Cc2nc(N)c3ncn(C4OC(C(=O)NC5CC5)C(O)C4O)c3n2)CC1` (stereo not shown) [ATL 313, 4-{3-[6-Amino-9-(5-cyclopropylcarbamoyl-3,4-dihydroxy-tetrahydro-furan-2-yl)-9H-purin-2-yl]-prop-2-ynyl}-piperidine-1-carboxylic acid methyl ester], which “secretion volume/ileal loop length ratio” value [1, 8] is on record?
Answer: Its value is “did not alter”.

Question: And the “weight/ileal loop length ratio” value [1, 8]?
Answer: Its value is “did not alter”.

Question: What about the “weight/ileal loop length ratio” value ([1]; ATL 313 5 nM given 30 min after TxA 5 μg) of the same compound?
Answer: Its value is 28.3 ± 1.4 mg/cm.

Question: And the “secretion volume/ileal loop length ratio” value [1, 9]?
Answer: The value was “significantly (P<0.05) reduced”.

Question: What about the “weight/ileal loop length ratio” value [1, 9] of the same compound?
Answer: The value was “significantly (P<0.05) reduced”.

Question: What about the histological injury score ([2]; ATL 313 30 min after injection of TxA 5 μg) of the same compound?
Answer: Its histological injury score is 1(0-2).

Question: What about the median injury score ([2]; ATL 313 + TxA 5 μg/loop) of the same compound?
Answer: The median injury score was 1(0-2).

Question: And the median injury score ([2]; compound alone, no TxA)?
Answer: Its median injury score is 0(0-0).

Question: And the mucosal cell death [3]?
Answer: Its mucosal cell death is “reduced number for cell death similar to the level of PBS control”.

Question: What about the “MPO activity in ileal tissue” value ([4]; ATL 313 5 nM alone, PBS=1.6±0.6) of the same compound?
Answer: The value was 2.1±0.2 U/mg.

Question: What about the “MPO activity in ileal tissue” value ([4]; ATL 313 5 nM then TxA 5 μg) of the same compound?
Answer: Its value is 1.0±0.6 U/mg.

Question: What about the “TNF-α production in ileal tissue” value [5] of the same compound?
Answer: The value was “significantly reduced (P<0.05)”.

Question: What about the “ADA activity in ileal secretion” value [6] of the same compound?
Answer: Its value is “significantly reduced (P<0.05)”.

Question: What about the “ADA activity in ileal tissue” value [6] of the same compound?
Answer: The value was “significantly reduced (P<0.05)”.

Question: And the “toxin A-induced inflammation” value [7]?
Answer: Its value is “improved inflammation”.

Question: What about the “toxin A-induced secretion (volume to length ratio)” value [7] of the same compound?
Answer: The value was “dramatically improved secretion”.
